These results are taken from ChEMBL document CHEMBL4765434, “Pyrrolo[2,3-d]pyrimidine derivatives as inhibitors of RET: Design, synthesis and biological evaluation” (Eur J Med Chem, 2020).

In experiment [1] the target is T1, Proto-oncogene tyrosine-protein kinase receptor Ret (Homo sapiens, UniProt P07949). Nature of the experiment: Inhibition of recombinant human GST-tagged RET cytoplasmic domain (658 to 1114 residues) expressed in baculovirus expression system using 5-FAM-EEPLYWSFPAKKK-CONH2 as substrate preincubated for 60 mins followed by substrate addition by microfluidic assay.
T1 sequence (P07949 whole entry, the tested form may be a part): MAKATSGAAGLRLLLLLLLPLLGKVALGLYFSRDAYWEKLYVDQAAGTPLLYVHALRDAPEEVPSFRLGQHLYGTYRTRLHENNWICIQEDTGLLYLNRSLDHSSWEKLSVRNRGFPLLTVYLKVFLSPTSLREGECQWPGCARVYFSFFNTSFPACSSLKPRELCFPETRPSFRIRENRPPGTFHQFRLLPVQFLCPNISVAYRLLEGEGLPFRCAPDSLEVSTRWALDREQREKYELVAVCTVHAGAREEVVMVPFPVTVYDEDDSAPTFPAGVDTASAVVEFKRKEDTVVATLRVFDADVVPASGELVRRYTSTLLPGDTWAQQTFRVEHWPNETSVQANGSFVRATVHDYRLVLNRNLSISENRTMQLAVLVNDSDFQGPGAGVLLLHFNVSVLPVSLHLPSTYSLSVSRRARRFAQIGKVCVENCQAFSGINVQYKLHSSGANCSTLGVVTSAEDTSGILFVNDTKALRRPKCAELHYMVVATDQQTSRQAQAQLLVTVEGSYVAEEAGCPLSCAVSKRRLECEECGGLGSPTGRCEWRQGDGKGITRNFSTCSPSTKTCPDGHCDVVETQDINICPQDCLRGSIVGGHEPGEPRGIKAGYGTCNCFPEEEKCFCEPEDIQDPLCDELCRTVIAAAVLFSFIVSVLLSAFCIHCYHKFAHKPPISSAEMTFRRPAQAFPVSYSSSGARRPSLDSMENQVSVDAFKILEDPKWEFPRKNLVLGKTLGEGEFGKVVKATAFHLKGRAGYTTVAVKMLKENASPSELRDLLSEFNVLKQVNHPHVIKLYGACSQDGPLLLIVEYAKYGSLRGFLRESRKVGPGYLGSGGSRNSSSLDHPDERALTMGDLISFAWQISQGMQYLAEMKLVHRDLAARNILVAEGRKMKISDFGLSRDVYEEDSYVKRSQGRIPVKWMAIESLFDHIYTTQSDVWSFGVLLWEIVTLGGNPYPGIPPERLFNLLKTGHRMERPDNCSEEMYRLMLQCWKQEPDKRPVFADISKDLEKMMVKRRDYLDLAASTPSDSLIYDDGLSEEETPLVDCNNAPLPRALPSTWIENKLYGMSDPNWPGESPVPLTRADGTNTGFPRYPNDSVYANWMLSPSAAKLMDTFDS

Experiment [2] relates to LC-2-ad. Nature of the experiment: Growth inhibition of human LC-2-ad cells measured after 3 days by resazurin staining based fluorescence assay. In kind it is functional. The following applies: 72 h, time 3 day. On the technique in general: Resazurin is reduced to fluorescent resorufin, in cell work by metabolically active cells.
For experiment [3], the target named is T2, Serine/threonine-protein kinase Nek2 (Homo sapiens, UniProt P51955).
T2 sequence (P51955 whole entry): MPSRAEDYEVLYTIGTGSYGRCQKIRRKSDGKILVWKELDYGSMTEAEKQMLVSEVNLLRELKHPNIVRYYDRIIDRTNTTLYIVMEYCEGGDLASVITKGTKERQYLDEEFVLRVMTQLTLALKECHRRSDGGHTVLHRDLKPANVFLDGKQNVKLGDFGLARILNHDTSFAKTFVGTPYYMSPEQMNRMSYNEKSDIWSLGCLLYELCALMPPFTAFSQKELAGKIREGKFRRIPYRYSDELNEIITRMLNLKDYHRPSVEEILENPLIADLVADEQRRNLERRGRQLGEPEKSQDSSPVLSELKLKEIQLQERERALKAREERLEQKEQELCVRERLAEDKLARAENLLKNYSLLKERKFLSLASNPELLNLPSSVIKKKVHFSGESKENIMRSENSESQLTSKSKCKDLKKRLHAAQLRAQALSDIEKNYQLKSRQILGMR
Kind of experiment: Inhibition of Nek2 (unknown origin).

In experiment [4] the target is T3, Aurora kinase A (Homo sapiens, UniProt O14965).
T3 sequence (O14965 whole entry): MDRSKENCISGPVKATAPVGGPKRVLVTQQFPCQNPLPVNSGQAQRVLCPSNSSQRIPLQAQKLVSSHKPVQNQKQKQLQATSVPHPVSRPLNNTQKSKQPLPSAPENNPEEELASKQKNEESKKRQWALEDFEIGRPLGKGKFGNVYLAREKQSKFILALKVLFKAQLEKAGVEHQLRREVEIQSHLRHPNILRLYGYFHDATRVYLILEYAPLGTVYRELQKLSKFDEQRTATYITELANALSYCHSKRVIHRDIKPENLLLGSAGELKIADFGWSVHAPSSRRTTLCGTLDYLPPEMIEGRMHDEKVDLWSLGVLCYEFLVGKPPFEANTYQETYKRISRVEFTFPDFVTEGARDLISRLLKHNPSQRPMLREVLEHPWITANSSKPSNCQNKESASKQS
Nature of the experiment: Inhibition of Aurora A (unknown origin).

Experiment [5] has as its target Mitogen-activated protein kinase kinase kinase kinase 4 (Homo sapiens, UniProt O95819). Kind of experiment: Inhibition of MAP4K4 (unknown origin).
Experiment [6] concerns the target Proto-oncogene tyrosine-protein kinase receptor Ret (Homo sapiens, UniProt P07949, V804M). Kind of experiment: Inhibition of recombinant human N-terminal GST-HIS6 fused RET V804M mutant (658 to 1114 residues) expressed in Sf9 insect cells using 5-FAM-EEPLYWSFPAKKK-CONH2 as substrate preincubated for 60 mins followed by substrate addition by microfluidic assay.
Experiment [7] addresses Macrophage colony-stimulating factor 1 receptor (Homo sapiens, UniProt P07333). Nature of the experiment: Inhibition of CSF1R (unknown origin).
Experiment [8] addresses T1, Proto-oncogene tyrosine-protein kinase receptor Ret. Kind of experiment: Non ATP-competitive inhibition of recombinant human GST-tagged RET cytoplasmic domain (658 to 1114 residues) expressed in baculovirus expression system at 3.125 to 50 nM using 5-FAM-EEPLYWSFPAKKK-CONH2 as substrate. As to conditions: dose 3.125-50 nM.
In experiment [9] the test system is LC-2-ad. Kind of experiment: Inhibition of cell migration in human LC-2-ad cells assessed as migrated distance at 3 uM measured after 52 hrs by microscopic method (reference value: 819.01 +/- 65.76 micrometer). The experiment is classed as functional.
Experiment [10] addresses Epidermal growth factor receptor (Homo sapiens, UniProt P00533). Kind of experiment: Inhibition of EGFR (unknown origin).
The target of experiment [11] is T1, Proto-oncogene tyrosine-protein kinase receptor Ret. Nature of the experiment: Non competitive inhibition of recombinant human GST-tagged RET cytoplasmic domain (658 to 1114 residues) expressed in baculovirus expression system at 3.125 to 50 nM using 5-FAM-EEPLYWSFPAKKK-CONH2 as substrate by Lineweaver-burk plot analysis. The following applies: dose 3.125-50 nM.

In experiment [12] the target is Mitogen-activated protein kinase kinase kinase 14 (Homo sapiens, UniProt Q99558). Nature of the experiment: Inhibition of NIK (unknown origin).
Experiment [13] addresses Aurora kinase B (Homo sapiens, UniProt Q96GD4). Nature of the experiment: Inhibition of Aurora B (unknown origin).
The test system of experiment [14] is LC-2-ad. Nature of the experiment: Inhibition of cell migration in human LC-2-ad cells assessed as migrated distance at 1 uM measured after 52 hrs by microscopic method (reference value: 819.01 +/- 65.76 micrometer). In kind it is functional.

Active and inactive are the calls of the source. The calls are words filed in the database; no cut-off is given here.

Proto-oncogene tyrosine-protein kinase receptor Ret (Homo sapiens, UniProt P07949, V804M), sequence (P07949 29-1114 V804M limits assumed): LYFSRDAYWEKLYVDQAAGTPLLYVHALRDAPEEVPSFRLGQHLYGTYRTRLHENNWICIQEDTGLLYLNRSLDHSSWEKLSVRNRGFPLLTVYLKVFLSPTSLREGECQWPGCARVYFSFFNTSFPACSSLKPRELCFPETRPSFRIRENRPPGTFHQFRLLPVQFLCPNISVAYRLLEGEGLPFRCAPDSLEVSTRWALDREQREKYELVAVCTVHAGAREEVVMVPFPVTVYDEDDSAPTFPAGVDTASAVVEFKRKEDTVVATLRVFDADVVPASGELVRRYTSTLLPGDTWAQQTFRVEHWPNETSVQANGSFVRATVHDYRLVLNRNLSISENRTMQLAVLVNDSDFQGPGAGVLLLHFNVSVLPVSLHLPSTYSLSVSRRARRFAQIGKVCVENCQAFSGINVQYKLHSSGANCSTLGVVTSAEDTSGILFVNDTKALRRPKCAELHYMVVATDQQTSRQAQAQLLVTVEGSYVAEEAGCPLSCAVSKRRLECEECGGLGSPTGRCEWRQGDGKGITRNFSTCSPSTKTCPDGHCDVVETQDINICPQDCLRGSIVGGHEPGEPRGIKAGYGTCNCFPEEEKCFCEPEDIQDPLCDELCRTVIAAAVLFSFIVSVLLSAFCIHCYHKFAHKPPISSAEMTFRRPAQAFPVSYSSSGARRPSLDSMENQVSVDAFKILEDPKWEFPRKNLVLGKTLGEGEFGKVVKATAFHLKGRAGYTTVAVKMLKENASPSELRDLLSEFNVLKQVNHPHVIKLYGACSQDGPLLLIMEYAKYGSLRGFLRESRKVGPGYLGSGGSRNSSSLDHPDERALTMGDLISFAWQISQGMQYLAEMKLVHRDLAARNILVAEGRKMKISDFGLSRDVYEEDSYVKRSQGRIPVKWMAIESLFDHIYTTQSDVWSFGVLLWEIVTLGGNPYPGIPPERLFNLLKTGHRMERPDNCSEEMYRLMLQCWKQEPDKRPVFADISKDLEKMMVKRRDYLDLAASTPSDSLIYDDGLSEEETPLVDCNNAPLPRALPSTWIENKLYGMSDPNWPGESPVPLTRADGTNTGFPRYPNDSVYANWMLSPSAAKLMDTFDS
Mitogen-activated protein kinase kinase kinase kinase 4, sequence (O95819 whole entry, the tested form may be a part): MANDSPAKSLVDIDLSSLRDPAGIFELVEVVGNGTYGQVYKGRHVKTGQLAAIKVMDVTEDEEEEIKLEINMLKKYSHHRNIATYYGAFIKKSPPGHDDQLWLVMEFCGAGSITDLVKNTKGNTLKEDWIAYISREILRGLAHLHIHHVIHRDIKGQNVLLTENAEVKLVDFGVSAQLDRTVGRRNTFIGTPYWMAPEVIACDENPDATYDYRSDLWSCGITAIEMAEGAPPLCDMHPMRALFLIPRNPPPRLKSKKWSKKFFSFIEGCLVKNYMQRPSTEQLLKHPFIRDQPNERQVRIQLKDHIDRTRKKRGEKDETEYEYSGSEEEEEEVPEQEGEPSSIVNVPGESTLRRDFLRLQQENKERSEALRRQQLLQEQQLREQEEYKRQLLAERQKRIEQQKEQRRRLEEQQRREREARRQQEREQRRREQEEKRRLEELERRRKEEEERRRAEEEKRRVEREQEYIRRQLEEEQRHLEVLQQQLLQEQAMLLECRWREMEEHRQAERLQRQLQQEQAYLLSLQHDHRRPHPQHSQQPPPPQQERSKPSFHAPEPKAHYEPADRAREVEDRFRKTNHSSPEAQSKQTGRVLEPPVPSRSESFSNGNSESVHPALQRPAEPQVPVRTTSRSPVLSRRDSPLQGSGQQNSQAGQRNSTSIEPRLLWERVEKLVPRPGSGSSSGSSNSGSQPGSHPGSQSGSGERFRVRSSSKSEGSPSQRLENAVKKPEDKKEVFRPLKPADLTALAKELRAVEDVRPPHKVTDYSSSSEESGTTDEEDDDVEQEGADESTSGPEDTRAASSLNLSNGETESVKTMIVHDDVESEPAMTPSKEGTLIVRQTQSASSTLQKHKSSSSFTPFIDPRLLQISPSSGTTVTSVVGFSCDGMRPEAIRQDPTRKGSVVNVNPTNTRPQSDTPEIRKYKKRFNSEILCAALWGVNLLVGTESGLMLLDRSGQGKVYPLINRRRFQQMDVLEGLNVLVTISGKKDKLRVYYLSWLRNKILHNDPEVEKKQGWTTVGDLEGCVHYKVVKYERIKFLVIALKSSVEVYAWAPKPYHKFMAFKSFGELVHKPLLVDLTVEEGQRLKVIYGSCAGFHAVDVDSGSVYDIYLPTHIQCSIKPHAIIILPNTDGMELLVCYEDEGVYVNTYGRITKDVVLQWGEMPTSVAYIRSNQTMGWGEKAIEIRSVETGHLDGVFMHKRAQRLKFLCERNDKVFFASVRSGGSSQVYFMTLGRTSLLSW
Aurora kinase B, sequence (Q96GD4 whole entry): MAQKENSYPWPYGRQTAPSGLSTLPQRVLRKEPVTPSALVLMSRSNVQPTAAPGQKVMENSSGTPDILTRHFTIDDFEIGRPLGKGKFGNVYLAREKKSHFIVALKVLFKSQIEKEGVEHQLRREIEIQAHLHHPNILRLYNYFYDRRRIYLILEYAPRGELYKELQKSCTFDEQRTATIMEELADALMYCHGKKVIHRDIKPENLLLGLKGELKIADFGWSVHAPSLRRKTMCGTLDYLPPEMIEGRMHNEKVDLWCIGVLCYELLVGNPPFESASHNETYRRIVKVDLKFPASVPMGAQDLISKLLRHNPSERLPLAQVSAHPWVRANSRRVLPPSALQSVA
Epidermal growth factor receptor, sequence (P00533 whole entry, the tested form may be a part): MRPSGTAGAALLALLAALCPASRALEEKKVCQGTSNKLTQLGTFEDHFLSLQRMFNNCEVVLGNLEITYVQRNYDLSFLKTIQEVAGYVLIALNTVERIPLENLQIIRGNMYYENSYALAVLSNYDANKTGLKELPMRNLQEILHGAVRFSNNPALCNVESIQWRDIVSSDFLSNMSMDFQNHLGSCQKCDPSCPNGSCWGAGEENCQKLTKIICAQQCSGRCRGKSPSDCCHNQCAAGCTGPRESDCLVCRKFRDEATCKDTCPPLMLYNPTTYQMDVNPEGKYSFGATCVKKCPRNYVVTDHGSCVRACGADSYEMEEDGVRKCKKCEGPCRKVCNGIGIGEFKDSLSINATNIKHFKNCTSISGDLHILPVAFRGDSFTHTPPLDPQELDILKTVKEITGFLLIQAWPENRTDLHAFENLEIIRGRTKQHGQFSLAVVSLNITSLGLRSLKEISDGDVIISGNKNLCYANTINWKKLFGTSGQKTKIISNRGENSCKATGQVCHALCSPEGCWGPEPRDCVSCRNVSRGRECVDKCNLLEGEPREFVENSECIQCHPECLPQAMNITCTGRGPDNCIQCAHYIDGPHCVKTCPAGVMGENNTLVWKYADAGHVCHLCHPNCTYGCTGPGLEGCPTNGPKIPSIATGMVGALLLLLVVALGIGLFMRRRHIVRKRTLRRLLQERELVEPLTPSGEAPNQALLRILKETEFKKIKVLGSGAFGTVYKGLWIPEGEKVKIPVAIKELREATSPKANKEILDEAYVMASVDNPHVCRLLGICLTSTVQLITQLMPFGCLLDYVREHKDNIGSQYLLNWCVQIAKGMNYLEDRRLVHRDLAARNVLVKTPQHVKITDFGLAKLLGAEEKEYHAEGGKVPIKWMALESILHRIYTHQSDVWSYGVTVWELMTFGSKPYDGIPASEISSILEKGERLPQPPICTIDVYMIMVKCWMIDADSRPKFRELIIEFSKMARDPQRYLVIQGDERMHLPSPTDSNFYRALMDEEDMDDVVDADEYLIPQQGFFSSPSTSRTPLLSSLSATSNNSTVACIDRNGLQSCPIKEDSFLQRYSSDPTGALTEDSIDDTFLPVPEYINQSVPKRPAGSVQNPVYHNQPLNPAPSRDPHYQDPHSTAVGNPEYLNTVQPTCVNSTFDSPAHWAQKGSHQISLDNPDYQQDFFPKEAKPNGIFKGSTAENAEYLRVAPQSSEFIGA

By IC50 is commonly meant the midpoint of a concentration-inhibition curve. On to `O=C(Cc1ccc(Nc2ncnc3[nH]ccc23)cc1)Nc1cccc2ncccc12`, for which, in experiment [1], the IC50 was found to be 19 µM.

Turning to `O=C(Cc1ccc(Nc2ncnc3[nH]c(-c4ccsc4)cc23)cc1)Nc1cccc(F)c1`, the half-inhibitory concentration (IC50) in experiment [1] is more than 20 µM.

On to `Cn1cc(-c2cc3c(Nc4ccc(CC(=O)Nc5cc(C(C)(C)C)nn5C)cc4)ncnc3s2)cn1`, for which the IC50 in [1] is 1.39 µM.

What is called GI50 is the concentration that inhibits growth by half. Higher therefore signals lower sensitivity of the cells. On to `Cn1nc(C(C)(C)C)cc1NC(=O)Cc1ccc(Nc2ncnc3sccc23)cc1`, for which the GI50 in [2] was found to be 17.5 µM. For the same compound, the IC50 in experiment [1] came out at 1.06 µM.

As to `COc1ccc(-c2cc3c(Nc4ccc(CC(=O)Nc5ccc(C(C)C)cc5)cc4)ncnc3[nH]2)cc1`, the half-maximal inhibitory concentration (IC50) in [1] worked out at 2.44 µM.

As to `Cn1nc(C(C)(C)C)cc1NC(=O)Cc1cccc(Nc2ncnc3[nH]ccc23)c1`, the IC50 in experiment [1] was 39.6 µM.

`CC(C)(C)c1cc(NC(=O)Cc2ccc(Nc3ncnc4[nH]c(-c5ccc(S(C)(=O)=O)cc5)cc34)cc2)no1`: the IC50 in [3] was more than 200 µM; in [4] it was 0.242 µM; in [5] it was 3.43 µM; in [6], 0.0135 µM; in experiment [7], 1.65 µM; in experiment [1] it was 0.0068 µM. Further, the 50% inhibitory concentration (IC50) in experiment [10] was 56.8 µM; in [12] it was more than 10 µM; in experiment [13], 0.536 µM. In [2], the concentration for 50% growth inhibition (GI50) came out at 0.107 µM. Also, the inhibition entry in experiment [8] and in experiment [11] was “Active” throughout. Further, in experiment [9], the Activity is given as 356.41 um.

With `O=C(Cc1ccc(Nc2ncnc3[nH]ccc23)cc1)Nc1ccc(C(F)(F)F)c(Cl)c1`, the IC50 in experiment [1] was more than 20 µM.

`O=C(Cc1ccc(Nc2ncnc3[nH]ccc23)cc1)Nc1ccc(OC(F)(F)F)cc1`: in experiment [1], the IC50 was more than 20 µM.

For the compound `COc1cc(NC(=O)Cc2ccc(Nc3ncnc4[nH]ccc34)cc2)cc(OC)c1OC`, in [1], the IC50 was determined as 47.6 µM.

On to `COc1ccc(-c2cc3c(Nc4ccc(CC(=O)Nc5cc(C(C)(C)C)nn5C)cc4)ncnc3[nH]2)cc1`, for which the IC50 in experiment [1] was determined as 0.12 µM.

Consider `CC(C)(C)c1cc(NC(=O)Cc2ccc(Nc3ncnc4sccc34)cc2)no1`, for which the GI50 in experiment [2] came to 15.2 µM. Further, the IC50 in experiment [1] was 0.96 µM.

In the case of `CS(=O)(=O)c1ccc(NC(=O)Cc2ccc(Nc3ncnc4[nH]ccc34)cc2)cc1`, in experiment [1], the IC50 is more than 20 µM.

Take `Cn1cc(-c2cc3c(Nc4ccc(CC(=O)Nc5cc(C(C)(C)C)on5)cc4)ncnc3s2)cn1`: the IC50 in experiment [1] turned out to be 0.82 µM.

With `Cn1nc(C(C)(C)C)cc1NC(=O)Cc1ccc(Nc2ncnc3[nH]c(-c4ccsc4)cc23)cc1`, the IC50 in experiment [1] amounted to 0.052 µM.

Turning to `O=C(Cc1ccc(Nc2ncnc3sccc23)cc1)Nc1cccc(F)c1`, the IC50 in experiment [1] was more than 20 µM.

The compound `O=C(Cc1ccc(Nc2ncnc3[nH]ccc23)cc1)Nc1cccc(C(F)(F)F)c1` yielded a GI50 in experiment [2] of 33.5 µM. Besides, the IC50 in [1] amounted to 16.2 µM.

The compound `Cn1nc(C(C)(C)C)cc1NC(=O)Cc1ccc(Nc2ncnc3[nH]ccc23)cc1` displayed a GI50 in [2] of 1.65 µM. Moreover, the IC50 in [1] was 0.127 µM.

Turning to `O=C(Cc1ccc(Nc2ncnc3[nH]ccc23)cc1)NC1CC1`, the GI50 in [2] is 14 µM. In addition, the IC50 in experiment [1] is 2.37 µM.

On to `COc1ccc(-c2cc3c(Nc4ccc(CC(=O)Nc5cccc(F)c5)cc4)ncnc3[nH]2)cc1`, for which the IC50 in experiment [1] was more than 20 µM.

For the compound `Cn1nc(C(C)(C)C)cc1NC(=O)Cc1ccc(Nc2ncnc3c2ccn3C)cc1`, the GI50 in [2] came to 36.4 µM. In addition, the IC50 in experiment [1] is 3.93 µM.

Turning to `CC(C)(C)c1cc(NC(=O)Cc2ccc(Nc3ncnc4[nH]ccc34)cc2)no1`, the GI50 in experiment [2] is 1.26 µM. Further, the half-inhibitory concentration (IC50) in experiment [1] was determined as 0.076 µM.

Turning to `O=C(Cc1ccc(Nc2ncnc3[nH]ccc23)cc1)NC1CCC1`, in experiment [1], the IC50 was determined as 3.91 µM.

Take `Cn1cc(-c2cc3c(Nc4ccc(CC(=O)Nc5cccc(F)c5)cc4)ncnc3[nH]2)cn1`: the IC50 in experiment [1] is more than 20 µM.

Turning to `O=C(Cc1ccc(Nc2ncnc3[nH]ccc23)cc1)Nc1ccc2c(c1)OCO2`, the IC50 in experiment [1] is more than 20 µM.

Turning to `CC(C)(C)c1ccc(-c2cc3c(Nc4ccc(CC(=O)Nc5cccc(F)c5)cc4)ncnc3[nH]2)cc1`, in experiment [1], the half-inhibitory concentration (IC50) is more than 20 µM.

`CC(=O)c1ccc(-c2cc3c(Nc4ccc(CC(=O)Nc5cc(C(C)(C)C)on5)cc4)ncnc3[nH]2)cc1`: the IC50 in [1] amounted to 0.044 µM.

As to `Cn1cc(-c2cc3c(Nc4ccc(CC(=O)Nc5cc(C(C)(C)C)on5)cc4)ncnc3[nH]2)cn1`, the IC50 in experiment [6] came to 0.0635 µM; in experiment [1], 0.009 µM. In addition, in experiment [2], the GI50 was 0.136 µM.

As to `O=C(Cc1ccc(Nc2ncnc3[nH]ccc23)cc1)NCc1ccccc1`, the IC50 in experiment [1] is 4.65 µM.

For the compound `Cn1ccc2c(Nc3ccc(CC(=O)Nc4cc(C(C)(C)C)on4)cc3)ncnc21`, the IC50 in experiment [1] is 3.51 µM.

With `CC(C)(C)c1ccc(-c2cc3c(Nc4ccc(CC(=O)Nc5cc(C(C)(C)C)on5)cc4)ncnc3[nH]2)cc1`, the IC50 in [1] was 13.5 µM.

As for `CC(C)c1ccc(NC(=O)Cc2ccc(Nc3ncnc4[nH]ccc34)cc2)cc1`, in [2], the GI50 is 29.6 µM. Besides, the half-inhibitory concentration (IC50) in experiment [1] was 7.69 µM.

Take `COc1cc2nccc(Oc3ccc(NC(=O)C4(C(=O)Nc5ccc(F)cc5)CC4)cc3)c2cc1OC` [CABOZANTINIB]: in experiment [14], the Activity stood at 287.3 um.

For the compound `COc1ccc(-c2cc3c(Nc4ccc(CC(=O)Nc5ccc(F)cc5)cc4)ncnc3[nH]2)cc1`, the IC50 in [1] is more than 20 µM.

As for `CC(C)(C)c1ccc(NC(=O)Cc2ccc(Nc3ncnc4[nH]ccc34)cc2)cc1`, the IC50 in experiment [1] worked out at 15.8 µM.

The compound `CC(C)(C)c1cc(NC(=O)Cc2ccc(Nc3ncnc4[nH]c(-c5ccsc5)cc34)cc2)no1` showed a GI50 in experiment [2] of 0.18 µM. For the same compound, in experiment [1], the IC50 stood at 0.05 µM.

The compound `CC(C)(C)c1cc(NC(=O)Cc2cccc(Nc3ncnc4[nH]ccc34)c2)no1` yielded a GI50 in [2] of 43.7 µM. In addition, the IC50 in experiment [1] was 31.6 µM.

Turning to `Cn1cc(-c2cc3c(Nc4ccc(CC(=O)Nc5cc(C(C)(C)C)nn5C)cc4)ncnc3[nH]2)cn1`, the figures for the IC50 in experiment [6] and in experiment [1] were 0.0728 µM and 0.021 µM, respectively.

For `O=C(Cc1ccc(Nc2ncnc3[nH]ccc23)cc1)Nc1cccc(F)c1`, the half-maximal inhibitory concentration (IC50) in experiment [1] is more than 20 µM.

As for `CC(C)c1ccc(NC(=O)Cc2ccc(Nc3ncnc4[nH]c(-c5cnn(C)c5)cc34)cc2)cc1`, the IC50 in experiment [1] was more than 20 µM.

For `Cn1nc(C(C)(C)C)cc1NC(=O)Cc1ccc(Nc2ncnc3[nH]c(-c4ccc(S(C)(=O)=O)cc4)cc23)cc1`, the IC50 in experiment [1] stood at 0.009 µM.
